Measurements published in paper PMC9228535, “Antistaphylococcal Activities and ADME-Related Properties of Chlorinated Arylcarbamoylnaphthalenylcarbamates” (Pharmaceuticals, 2022).
Values after ≈ are worked out from the molar mass of the structure shown.

Assays:
Assay type in all cases: cell-based
[1] = test system: MRSA 63718; experiment: MIC, microtitration broth method; settings: Staphylococcus aureus, MRSA, 24 h
Experimental: (§1) All the investigated compounds were screened for in vitro antibacterial activity against the reference and quality control strain Staphylococcus aureus ATCC 29213 and clinical isolates of methicillin-resistant S. aureus (MRSA) 63718, SA 630, and SA 3202 [14]. Activities are expressed as the minimum inhibitory concentrations (MICs), see Table 2. In addition to the MICs, the minimum bactericidal concentrations (MBCs) were also determined.
(§2) In vitro antibacterial activity of the synthesized compounds was evaluated against representatives of multidrug-resistant bacteria, three clinical isolates of methicillin-resistant S. aureus: clinical isolate of animal origin, MRSA 63718 (Department of Infectious Diseases and Microbiology, Faculty of Veterinary Medicine, University of Veterinary Sciences Brno, Czech Republic), carrying the mecA gene; and MRSA SA 630 [46] and MRSA SA 3202 [46] (National Institute of Public Health, Prague, Czech Republic), both of human origin. Suspected colonies were confirmed by PCR; a 108bp fragment specific for S. aureus was detected. All isolates were tested for the presence of the mecA gene encoding methicillin resistance. […] Vancomycin-susceptible methicillin-susceptible S. aureus (VS-MSSA) ATCC 29213, obtained from the American Type Culture Collection, was used as the reference and quality control strain. Enterococcus faecalis ATCC 29212 was obtained from the American Type Culture Collection and used as the reference and quality control strain.
(§3) The minimum inhibitory concentrations (MICs) were evaluated by the microtitration broth method according to the CLSI [64, 65] with some modifications. The compounds were dissolved in DMSO (Sigma, St. Louis, MO, USA) to get a concentration […] and diluted in a microtitration plate in an appropriate medium, namely, Cation Adjusted Mueller–Hinton (CaMH, Oxoid, Basingstoke, UK) for staphylococci (S. aureus ATCC 29213, clinical isolates of MRSA 63718, SA 630, and SA 3202) and brain heart infusion (BHI, Oxoid) for E. faecalis ATCC 29212, to reach the final concentration of 256-0.125 µg/mL. The plate was inoculated by the tested microorganisms. The final concentration of bacterial cells was 10^5 for bacteria. Ampicillin (Sigma) was used as reference drugs. A drug-free control and a sterility control were included. The plates were incubated for 24 h at 37 °C for staphylococci and E. faecalis ATCC 29212 (stability evaluation of the carbamates, see Supplementary materials, Table S1). […] The experiments were repeated three times.

[2] = test system: MRSA SA 3202; experiment: MIC, microtitration broth method; settings: Staphylococcus aureus, 24 h
Experimental: as §1, §2, §3

[3] = test system: MRSA SA 630; experiment: MIC, microtitration broth method; settings: Staphylococcus aureus, 24 h
Experimental: as §1, §2, §3

[4] = test system: Staphylococcus aureus ATCC 29213; experiment: MIC, microtitration broth method; settings: ATCC29213, 24 h
Experimental: as §1, §2, §3

[5] = test system: MRSA 63718; experiment: MBC, agar aliquot subculture method; settings: Staphylococcus aureus, MRSA
Experimental: as §1
(§4) For the S. aureus and MRSA isolates, the agar aliquot subculture method was used as a test for bactericidal agents. After the MIC value determination, the inoculum was transferred to Mueller–Hinton (Oxoid) agar using a multipoint inoculator. The plates were incubated in a thermostat at 37 °C for 24 h. The lowest concentration of test compound at which ≤5 colonies were obtained was then evaluated as MBC, corresponding to a 99.9% decrease in CFU relative to the original inoculum.

[6] = test system: MRSA SA 3202; experiment: MBC, agar aliquot subculture method; settings: Staphylococcus aureus
Experimental: as §1, §4

[7] = test system: MRSA SA 630; experiment: MBC, agar aliquot subculture method; settings: Staphylococcus aureus
Experimental: as §1, §4

[8] = test system: Staphylococcus aureus ATCC 29213; experiment: MBC, agar aliquot subculture method; settings: ATCC29213
Experimental: as §1, §4

[9] = test system: THP-1 cells; experiment: In vitro cytotoxicity assay (WST-1); settings: Homo sapiens, THP-1, 24 h
Experimental: Preliminary in vitro cytotoxicity screening of the investigated compounds was performed using human monocytic leukemia THP-1 cells, see Table 2. The ability to inhibit the human cancer cell viability (IC50) of the compounds was compared to camptothecin toxicity (0.16 ± 0.07 μM). […] However, these values are up to two orders of magnitude higher than their significant antistaphyloccocal concentrations. This fact is also taken into account in the calculated selectivity index (SI), Table 2, where for only three compounds the SI is <20, while for the rest of the agents SI is >20, and for some derivatives even 100 and more. Thus, based on all these observations, it can be concluded that all the tested derivatives can be considered as in vitro non-toxic compounds for the subsequent design of new therapeutic agents.
The human THP-1 cell line (European Collection of Cell Cultures, Salisbury, UK) was cultured in RPMI 1640 medium supplemented with 10% fetal bovine serum, 2% L-glutamine, 1% penicillin, and streptomycin at 37 °C with 5% CO2. Cells were passaged at approximately 1-week intervals. All the tested compounds were prepared and dissolved as mentioned in our previous work.

CCNC(=O)Oc1c(C(=O)Nc2cc(Cl)c(Cl)cc2Cl)ccc2ccccc12 [Compound 2, 2-[N-(2,4,5-Trichlorophenyl)carbamoyl]naphthalen-1-yl ethyl carbamate]
MIC [1]: 0.144 µM (≈ 0.063 µg/mL) | MIC [2]: 0.018 µM (≈ 0.00788 µg/mL) | MIC [3]: 0.018 µM (≈ 0.00788 µg/mL) | MIC [4]: 0.018 µM (≈ 0.00788 µg/mL) | MBC [5]: 0.286 µM (≈ 0.125 µg/mL) | MBC [6]: 0.073 µM (≈ 0.032 µg/mL) | MBC [7]: 0.144 µM (≈ 0.063 µg/mL) | MBC [8]: 0.018 µM (≈ 0.00788 µg/mL) | IC50 [9]: 2850 ± 170 nM
